In brackets after ≈: the same amount, converted by molar mass. Read-outs that look alike come from different tables or passages of the source.
Legend:
Test in all cases: antimicrobial activity, serial dilution method on agar plate
Type in all cases: cell-based
[1] = system: Escherichia Coli NIHJ; settings: read-out: Minimum Inhibitory Concentration
Procedure: (§1) The antimicrobial activity of the following test compounds on various test organisms listed below was determined by the serial dilution method on agar plate (Heart Infusion agar produced by Difco Co.) (see CHEMOTHERAPY 22, pp. 1126-1128 (1974)), and the minimum inhibitory concentrations (mcg/ml) obtained are shown in Table 1 below.
(§2) A sample of each test organism was prepared so that the population of the organism was 1×10^8 cells/ml (O.D. 660 mμ=0.07 to 0.16) and 1×10^6 cells/ml (which was obtained by diluting the above 1×10^8 cells/ml preparation).

[2] = system: Klebsiella pneumoniae
Procedure: as §1, §2

[3] = system: Proteus rettgeri NIH 96; settings: Providencia rettgeri, read-out: Minimum Inhibitory Concentration
Procedure: as §1, §2

[4] = system: Pseudomonas aeruginosa ATCC 10145
Procedure: as §1, §2

[5] = system: Pseudomonas aeruginosa E-2; settings: read-out: Minimum Inhibitory Concentration
Procedure: as §1, §2

[6] = system: Pseudomonas aeruginosa NCTC 10490; settings: read-out: Minimum Inhibitory Concentration
Procedure: as §1, §2

[7] = system: Salmonella typhi 0-901 (NCTC 8393); settings: Salmonella enterica
Procedure: as §1, §2

[8] = system: Serattia marcescens IFO 12648; settings: read-out: Minimum Inhibitory Concentration
Procedure: as §1, §2

[9] = system: Shigella Sonnei EW 33; settings: read-out: Minimum Inhibitory Concentration
Procedure: as §1, §2

[10] = system: Staphylococcus aureus FDA 209 P; settings: read-out: Minimum Inhibitory Concentration
Procedure: as §1, §2

[11] = system: Streptococcus pyogenes IID S-23; settings: read-out: Minimum Inhibitory Concentration
Procedure: as §1, §2

[12] = inoculum 1 × 10^8 cells/ml, read-out: Minimum Inhibitory Concentration
[13] = NIH96, inoculum 1 × 10^8 cells/ml
[14] = ATCC10145, inoculum 1 × 10^8 cells/ml, read-out: Minimum Inhibitory Concentration
[15] = NCTC10490, inoculum 1 × 10^8 cells/ml
[16] = read-out: Minimum Inhibitory Concentration, inoculum 1 × 10^8 cells/ml
[17] = FDA209, inoculum 1 × 10^8 cells/ml

## CC1Cc2c(Cl)ccc3c(=O)c(C(=O)O)cn1c23 (stereo not drawn) [G]
[1]; inoculum 1 × 10^6 cells/ml
  MIC: 0.4 µg/mL (≈ 1.52 µM)
[1]; inoculum 1 × 10^8 cells/ml
  MIC: 0.8 µg/mL (≈ 3.03 µM)
[2]; inoculum 1 × 10^6 cells/ml, read-out: Minimum Inhibitory Concentration
  MIC: 1.6 µg/mL (≈ 6.07 µM)
[2]; [12]
  MIC: 3.1 µg/mL (≈ 11.8 µM)
[3]; NIH96, inoculum 1 × 10^6 cells/ml
  MIC: 0.2 µg/mL (≈ 0.758 µM)
[3]; [13]
  MIC: 0.4 µg/mL (≈ 1.52 µM)
[4]; ATCC10145, inoculum 1 × 10^6 cells/ml, read-out: Minimum Inhibitory Concentration
  MIC: 25 µg/mL (≈ 94.8 µM)
[4]; [14]
  MIC: 50 µg/mL (≈ 190 µM)
[5]; E2, inoculum 1 × 10^6 cells/ml
  MIC: 50 µg/mL (≈ 190 µM)
[5]; E2, inoculum 1 × 10^8 cells/ml
  MIC: 100 µg/mL (≈ 379 µM)
[6]; NCTC10490, inoculum 1 × 10^6 cells/ml
  MIC: 12.5 µg/mL (≈ 47.4 µM)
[6]; [15]
  MIC: 25 µg/mL (≈ 94.8 µM)
[7]; read-out: Minimum Inhibitory Concentration, inoculum 1 × 10^6 cells/ml
  MIC: 0.8 µg/mL (≈ 3.03 µM)
[7]; [16]
  MIC: 0.8 µg/mL (≈ 3.03 µM)
[8]; inoculum 1 × 10^6 cells/ml
  MIC: 1.6 µg/mL (≈ 6.07 µM)
[8]; inoculum 1 × 10^8 cells/ml
  MIC: 3.1 µg/mL (≈ 11.8 µM)
[9]; inoculum 1 × 10^6 cells/ml
  MIC: 1.6 µg/mL (≈ 6.07 µM)
[9]; inoculum 1 × 10^8 cells/ml
  MIC: 1.6 µg/mL (≈ 6.07 µM)
[10]; FDA209, inoculum 1 × 10^6 cells/ml
  MIC: 3.1 µg/mL (≈ 11.8 µM)
[10]; [17]
  MIC: 3.1 µg/mL (≈ 11.8 µM)
[11]; IIDS23, inoculum 1 × 10^6 cells/ml
  MIC: > 100 µg/mL
[11]; IIDS23, inoculum 1 × 10^8 cells/ml
  MIC: > 100 µg/mL

## CC(=O)N1CCN(c2ccc3c(=O)c(C(=O)NC(C(=O)NC4C(=O)N5C4SC(C)(C)C5C(=O)O)c4ccccc4)cn4c3c2CCC4)CC1 (stereo not drawn) [H]
[1]; inoculum 1 × 10^8 cells/ml
  MIC: 6.3 µg/mL (≈ 9.17 µM)
[2]; [16]
  MIC: 12.5 µg/mL (≈ 18.2 µM)
[3]; [13]
  MIC: 25 µg/mL (≈ 36.4 µM)
[4]; ATCC10145, read-out: Minimum Inhibitory Concentration, inoculum 1 × 10^8 cells/ml
  MIC: 12.5 µg/mL (≈ 18.2 µM)
[5]; E2, inoculum 1 × 10^8 cells/ml
  MIC: 25 µg/mL (≈ 36.4 µM)
[6]; [15]
  MIC: 3.1 µg/mL (≈ 4.51 µM)
[7]; [16]
  MIC: 6.3 µg/mL (≈ 9.17 µM)
[8]; inoculum 1 × 10^8 cells/ml
  MIC: 50 µg/mL (≈ 72.8 µM)
[9]; inoculum 1 × 10^8 cells/ml
  MIC: 12.5 µg/mL (≈ 18.2 µM)
[10]; [17]
  MIC: 1.6 µg/mL (≈ 2.33 µM)

## CC1(C)SC2C(NC(=O)C(NC(=O)c3cn4c5c(c(N6CCNCC6)ccc5c3=O)CCC4)c3ccccc3)C(=O)N2C1C(=O)O (stereo not drawn) [I]
[1]; inoculum 1 × 10^8 cells/ml
  MIC: 1.6 µg/mL (≈ 2.48 µM)
[2]; [12]
  MIC: 0.8 µg/mL (≈ 1.24 µM)
[3]; [13]
  MIC: 0.4 µg/mL (≈ 0.62 µM)
[4]; [14]
  MIC: 25 µg/mL (≈ 38.8 µM)
[5]; E2, inoculum 1 × 10^8 cells/ml
  MIC: 25 µg/mL (≈ 38.8 µM)
[6]; [15]
  MIC: 6.3 µg/mL (≈ 9.77 µM)
[7]; [16]
  MIC: 0.2 µg/mL (≈ 0.31 µM)
[8]; inoculum 1 × 10^8 cells/ml
  MIC: 12.5 µg/mL (≈ 19.4 µM)
[9]; inoculum 1 × 10^8 cells/ml
  MIC: 3.1 µg/mL (≈ 4.81 µM)
[10]; [17]
  MIC: 0.1 µg/mL (≈ 0.155 µM)

From patent publication US4416884A, “Piperazinylbenzoheterocyclic compounds” (Otsuka Pharmaceutical Co., Ltd., priority 1978, dated 1983)
